Test system: PDC 521955-158-R6-J3 spheroids, viability
Assay: Anticancer human tumor 521955-158-R6-J3-PDC patient-derived pancreatic carcinoma cell line growth inhibition [TAK]
Conditions: spheroids with HUVEC and MSC; for IC50: curve of first compound; for viability, T/C: stronger effect = lower value
Outline: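 Tumor cells were grown as spheroids with HUVEC and hMSC (60:25:15) and treated with targeted agents combined with TAK-243 or ipatasertib. Drugs were tested in half-log steps down from near the clinical Cmax, or from 10 microM where Cmax was unknown.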

[1] = second compound 0.3 µM, first compound 0.0316 µM
[2] = second compound 0.3 µM, first compound 0.1 µM
[3] = second compound 0.3 µM, first compound 0.316 µM
[4] = second compound 0.3 µM, first compound 1 µM
[5] = second compound 0.949 µM, first compound 0.0316 µM
[6] = second compound 0.949 µM, first compound 0.1 µM
[7] = second compound 0.949 µM, first compound 0.316 µM
[8] = second compound 0.949 µM, first compound 1 µM
[9] = second compound 3 µM, first compound 0.0316 µM
[10] = second compound 3 µM, first compound 0.1 µM
[11] = second compound 3 µM, first compound 0.316 µM
[12] = second compound 3 µM, first compound 1 µM
[13] = second compound 9.49 µM, first compound 0.0316 µM
[14] = second compound 9.49 µM, first compound 0.1 µM
[15] = second compound 9.49 µM, first compound 0.316 µM
[16] = second compound 9.49 µM, first compound 1 µM
[17] = second compound 30 µM, first compound 0.0316 µM
[18] = second compound 30 µM, first compound 0.1 µM
[19] = second compound 30 µM, first compound 0.316 µM
[20] = second compound 30 µM, first compound 1 µM
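Note: spheroids exposed to drugs for 7 days before readout.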
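Throughout, for viability, T/C: 100% = DMSO vehicle control viability.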

| Compound | IC50 (second compound 0.3 µM) | IC50 (second compound 0.949 µM) | IC50 (second compound 3 µM) | IC50 (second compound 9.49 µM) | IC50 (second compound 30 µM) | viability, T/C [1] | viability, T/C [2] | viability, T/C [3] | viability, T/C [4] | viability, T/C [5] | viability, T/C [6] | viability, T/C [7] | viability, T/C [8] | viability, T/C [9] | viability, T/C [10] | viability, T/C [11] | viability, T/C [12] | viability, T/C [13] | viability, T/C [14] | viability, T/C [15] | further results |
| --- | --- | --- | --- | --- | --- | --- | --- | --- | --- | --- | --- | --- | --- | --- | --- | --- | --- | --- | --- | --- | --- |
| COc1c(OCCCN2CCOCC2)ccc2c3n(c(=NC(=O)c4cnc(N)nc4)nc12)CCN3 + CC(C)NCC(C(=O)N1CCN(c2ncnc3c2C(C)CC3O)CC1)c1ccc(Cl)cc1 | 38.4 nM | 7.43 nM | < 3.16 nM | < 3.16 nM | < 3.16 nM | 51.2% | 41% | 27% | 21.6% | 44.9% | 37.4% | 25.9% | 20.2% | 37.8% | 32.9% | 25.7% | 19.5% | 35.8% | 29.9% | 22.8% | viability, T/C (second compound 0.3 µM, first compound 0.00316 µM): 70.9%; viability, T/C (second compound 0.3 µM, first compound 0.01 µM): 63.6%; viability, T/C (second compound 0.949 µM, first compound 0.00316 µM): 52.4%; viability, T/C (second compound 0.949 µM, first compound 0.01 µM): 48.2%; viability, T/C (second compound 3 µM, first compound 0.00316 µM): 46.8%; viability, T/C (second compound 3 µM, first compound 0.01 µM): 43.5%; viability, T/C (second compound 9.49 µM, first compound 0.00316 µM): 43.3%; viability, T/C (second compound 9.49 µM, first compound 0.01 µM): 37.5%; viability, T/C [16]: 19.8%; viability, T/C (second compound 30 µM, first compound 0.00316 µM): 41.1%; viability, T/C (second compound 30 µM, first compound 0.01 µM): 34.5%; viability, T/C [17]: 37%; viability, T/C [18]: 24.6%; viability, T/C [19]: 18%; viability, T/C [20]: 15.4% |
| Cc1nc(NC(=O)N2CCCC2C(N)=O)sc1-c1ccnc(C(C)(C)C(F)(F)F)c1 (stereo not given) + CC(C)NCC(C(=O)N1CCN(c2ncnc3c2C(C)CC3O)CC1)c1ccc(Cl)cc1 | > 10000 nM | 4490 nM | 2820 nM | 509 nM | 481 nM | 70.5% | 77% | 72.7% | 63.1% | 63.4% | 64% | 57.3% | 55.3% | 57.2% | 62.7% | 58.8% | 51.5% | 63% | 58.4% | 48.2% | viability, T/C (second compound 0.3 µM, first compound 3.16 µM): 66.4%; viability, T/C (second compound 0.3 µM, first compound 10 µM): 55.6%; viability, T/C (second compound 0.949 µM, first compound 3.16 µM): 54.3%; viability, T/C (second compound 0.949 µM, first compound 10 µM): 44.9%; viability, T/C (second compound 3 µM, first compound 3.16 µM): 51.2%; viability, T/C (second compound 3 µM, first compound 10 µM): 38.9%; viability, T/C [16]: 47.2%; viability, T/C (second compound 9.49 µM, first compound 3.16 µM): 46.9%; viability, T/C (second compound 9.49 µM, first compound 10 µM): 35.1%; viability, T/C [17]: 60%; viability, T/C [18]: 49.2%; viability, T/C [19]: 54.5%; viability, T/C [20]: 46.8%; viability, T/C (second compound 30 µM, first compound 3.16 µM): 38.9%; viability, T/C (second compound 30 µM, first compound 10 µM): 26.2% |

— PubChem BioAssay AID2060350 (Molecular Pharmacology Branch, DTP, NCI, 2025)
